Results: the METLIN SMRT retention time set (Domingo-Almenara et al. 2019)

Assay: gradient 5% acetonitrile 3 min, to 50% in 2 min, to 85% in 15 min, held 3 min, 100 µL/min
Conditions: column: Zorbax Extend-C18 2.1 x 50 mm; eluents: water / acetonitrile, 0.1% formic acid
Outline: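 In both positive and negative ionization mode, a quadrupole time-of-flight mass spectrometer coupled to HPLC analyzed pure standards run in mixtures of ~100 molecules. The Zorbax Extend-C18 column (2.1 × 50 mm, 1.8 μm) was operated at 100 μL/min with water and acetonitrile, each containing 0.1% formic acid. The dead volume was 40 μL and the dwell volume 900 μL. Retention time came from adduct peaks that were computationally picked and individually inspected by hand.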

| Compound | RP-LC retention time [s] |
| --- | --- |
| Cc1cc2c(C)c(C(=O)N3CCCCC3)oc2c(S(=O)(=O)N2CCN(c3ncccn3)CC2)c1C | 1100 |
| O=C(NCc1ccc2c(c1)OCO2)C1Cn2cccc2C(=O)N1Cc1cccnc1 (stereo not drawn) | 594 |
| O=C(Cn1cnc2nc(N3CCOCC3)ncc2c1=O)Nc1ccc2c(c1)OCCO2 | 658 |
| Cc1ccc(S(=O)(=O)[C@H]2CS(=O)(=O)C[C@@H]2N2CCN(Cc3ccccc3)CC2)cc1 | 651 |
| CC(=O)N1CCc2cc(N3CC(C(=O)NCc4ccc(C(F)(F)F)cc4)CC3=O)ccc21 (stereo not drawn) | 748 |
| CC1CCCN(CCCNC(=O)c2cc(=O)n3c(nc4ccccc43)s2)C1 (stereo not drawn) | 638 |
| CCC(C)NC(=O)c1ccc2c(c1)N(C)C(=O)CS2 (stereo not drawn) | 734 |
| CC(=O)Nc1ccc(S(=O)(=O)NCCc2cn(CC(C)C)c3ncccc23)cc1 | 726 |
| O=C(Nc1cc(F)ccc1F)Nc1cccn2cnnc12 | 727 |
| O=C(Nc1ccccn1)C1CCN(S(=O)(=O)c2cc(-c3noc(C4CCC4)n3)cs2)CC1 | 893 |
| C[C@H](NC(=O)Cc1cc(F)cc(F)c1)C(=O)N[C@H](C(=O)OC(C)(C)C)c1ccccc1 | 944 |
| O=C(Nc1ccc(-c2nnc3n2CCCC3)cc1)c1ccco1 | 609 |
| Cc1ccc(-c2ncc(C(=O)Nc3cc(C)ccc3F)c(-c3ccncc3)n2)cc1 | 995 |
| COc1ccc(-c2cc3nn(CC(=O)NCc4cccc(OC)c4)c(=O)n3c(C)n2)cc1 | 875 |
| Cn1cc(-c2ccncc2)cc1C(=O)N1CCN(c2ccccc2)CC1 | 624 |
| O=C(NCc1ccccc1Cl)c1ccc2c(cnn2CC(=O)N2CCCCCC2)c1 | 830 |
| CCN1C(=O)COc2ccc(-c3noc(-c4cccc5[nH]ccc45)n3)cc21 | 998 |
| Fc1ccc(-c2nnc(Cc3nc(Cc4ccccc4)no3)o2)cc1 | 931 |
| CC(C)c1nnc(C2CCN(C(=O)c3ccc(S(=O)(=O)N4CCOCC4)cc3)CC2)o1 | 659 |
| Cc1cc(C)c(C)c(S(=O)(=O)N2CCn3c(nn(CC4CC4)c3=O)C2)c1C | 943 |
| Cc1ccc(CNC(=O)c2ccc(CN3CCN(Cc4ccc(F)cc4)C(=O)C3=O)cc2)o1 | 823 |
| Cc1cc(-c2nnc(-c3ccc(F)cc3)o2)c(C)n1CC(=O)NCc1ccccn1 | 673 |

| Compound | RP-LC retention time [s] |
| --- | --- |
| O=C(Nc1ccc2c(c1)OCCO2)c1ccc(-c2ccsc2)nc1 | 864 |
| CC(C)NC(=O)N1CCCC1c1nc(-c2cccc(C(F)(F)F)c2)no1 (stereo not drawn) | 902 |
| COc1cccc2cc(C(=O)N3CC(c4nc(C5CC5)no4)C3)oc12 | 788 |
| CCCNc1cc(N2CCC(CCC(=O)NCc3cccc(C)c3)CC2)ncn1 | 716 |
| Cc1nc2ncnn2c(N2CCOCC2)c1C | 625 |
| CN1C(=O)c2cc(S(=O)(=O)Nc3cccc(Cl)c3)ccc2Oc2cccnc21 | 952 |
| CC(C)Oc1ccc(CNC(=O)C2CCN(S(=O)(=O)c3cn(C(C)C)cn3)CC2)cc1 | 802 |
| C[C@H](NC(=O)Cc1cc(F)cc(F)c1)C(=O)N[C@@H]1C(=O)N(C)c2ccccc2-c2ccccc21 | 949 |
| CCN1C(=O)COc2cc(-c3noc(C(=O)NCCc4ccc(S(N)(=O)=O)cc4)n3)ccc21 | 732 |
| CCC(NC(=O)C1CCCN(c2cnc3nccnc3c2)C1)c1cccs1 (stereo not drawn) | 728 |
| Cc1nnc2ccc(-c3noc(CCc4ccccc4)n3)cn12 | 1140 |
| CNC(=O)O[C@H]1COc2ccc(N3CCN(C4COC4)CC3)cc2[C@@H]1NC(=O)c1ccc(F)cc1 | 652 |
| CNC(=O)c1noc([C@@H]2CC(F)(F)CN2C(=O)C2CCC2)n1 | 669 |
| CN1CCc2nnc(C3CCCN3C(=O)Nc3ccc(Cl)cc3F)n2CC1 (stereo not drawn) | 581 |
| Cc1cc(=O)c2c(=O)[nH][nH]c2[nH]1 | 567 |
| O=C(Nc1ccc(C2(C(=O)NCC3CCCO3)CC2)cc1)c1ccc(Br)cc1 (stereo not drawn) | 828 |
| CC(C)N1C(=O)C(C)(C(=O)N2CCN(c3ccccc3F)CC2)Oc2cccnc21 (stereo not drawn) | 1130 |
| CCOC(=O)c1c(N2CCOCC2)nc2ccc([N+](=O)[O-])cc2c1-c1ccccc1 | 1110 |
| COc1ccc(OC)c(CCNc2nc(-c3ccc(OC)c(OC)c3)no2)c1 | 918 |
| Cc1ccc(CNC(=O)c2nnc(-c3ccc(S(=O)(=O)N4CCC(C)CC4)cc3)o2)o1 | 923 |
| COc1ccc(C2C(=O)N(C3CCCCC3)CC(=O)N2Cc2cccs2)cc1 (stereo not drawn) | 952 |
| COc1ccc(-n2nc(N3CCCC(C(=O)NC(C)CCc4ccccc4)C3)ccc2=O)cc1 (stereo not drawn) | 884 |

| Compound | RP-LC retention time [s] |
| --- | --- |
| Cc1noc2nc(CCC(=O)NCc3ccccn3)nc(N3CC(C)CC(C)C3)c12 (stereo not drawn) | 690 |
| NC(=O)c1c(NC(=O)C2CCCN(C(=O)C3CCCC3)C2)sc2c1CCCC2 (stereo not drawn) | 866 |
| Cn1cc(S(=O)(=O)N2CCC(C(=O)NCc3ccccn3)CC2)cc1C(=O)N1CCCC1 | 583 |
| CCN1CCCn2cc(S(=O)(=O)Nc3ccc(C)cc3C)cc2C1=O | 763 |
| N#Cc1ccc(C(=O)Nc2cnc(-c3ccc(Cl)cc3)nc2)cc1 | 1070 |
| CCC(C)C(=O)N1CCN(c2ncccc2-c2nnc(C3CC3)o2)CC1 (stereo not drawn) | 733 |
| CN(C)c1ccc(C(CNC(=O)c2ccco2)N2CCc3ccccc3C2)cc1 (stereo not drawn) | 582 |
| O=C1COc2ccc(S(=O)(=O)N3CCC(C(=O)N4CCOCC4)CC3)cc2N1 | 620 |
| CC(C)c1cc(Oc2c(Br)cc(NC(=O)CC(=O)O)cc2Br)ccc1O | 940 |
| CCC(=O)N1CCCn2nc(-c3ccc(F)cc3)cc2C1 | 741 |
| O=S(=O)(Nc1ccc(Cn2cncn2)cc1)c1ccccc1Br | 708 |
| COc1ccc(OC)c(S(=O)(=O)N2[C@H]3CC[C@@H]2c2cnc(-c4ccccc4)nc2C3)c1 | 1020 |
| Cc1nc2c(c(SCC(=O)Nc3nc(-c4ccccc4)cs3)n1)CCC2 | 982 |
| CCN(CC)CCNC(=O)CCc1cc2ccc(C)cc2[nH]c1=O | 591 |
| CCn1c(=O)c(C(=O)NC(C)C)nc2cc(C)c(C)cc21 | 803 |
| Cn1c(=O)oc2cc(-c3noc(/C=C/c4ccccc4)n3)ccc21 | 1060 |
| CC(=O)Nc1cccc(NC(=O)C2CC(=O)N(c3n[nH]c4cccc(F)c34)C2)c1 (stereo not drawn) | 644 |
| C=Cc1ccc(CN2C(=O)CCC2c2nc(C)no2)cc1 (stereo not drawn) | 731 |
| CN(C)C(=O)c1n[nH]c2c1CN(C(=O)c1cc(F)ccc1F)CC2 | 617 |
| O=C(Cn1ccn(-c2cccc(Cl)c2)c(=O)c1=O)NCc1ccco1 | 641 |
| Nc1nc(Nc2ccccc2F)nc2ccccc12 | 600 |
| COc1ccccc1OCC1c2ccsc2CCN1C(=O)CN(CC1CC1)C(=O)NC(C)C (stereo not drawn) | 919 |

| Compound | RP-LC retention time [s] |
| --- | --- |
| Cc1ccc(NC(=O)N2CCC(n3c(-c4ccoc4)nc4cccnc43)C2)cc1 (stereo not drawn) | 740 |
| COc1ccc(C(=O)Nc2sc3ccccc3c(=O)c2-c2cccs2)cc1OC | 951 |
| CCOc1cc(CNC(=O)C2=Cc3cc(OC)ccc3OC2)ccc1OC | 873 |
| CC1(C(=O)NCc2ccc3c(c2)OCO3)CCN(C(=O)/C=C/c2ccccc2)CC1 | 817 |
| CCc1nc2ccccc2n1CC(O)COc1ccc(C)c(C)c1 (stereo not drawn) | 696 |
| CCn1c(=O)c2ccccc2n(Cc2nc(-c3ccccc3)no2)c1=O | 991 |
| CCCc1noc(-c2ccnc(-n3ncc(C(=O)NC(C)C)c3C)c2)n1 | 868 |
| CCn1cc(S(=O)(=O)Nc2cc(C)ccc2F)c2cccnc21 | 846 |
| COC(=O)c1c(C)[nH]c(C(=O)N2CCCC(C(=O)NCCCN3CCCCC3)C2)c1C (stereo not drawn) | 596 |
| COc1ccc(-c2cn3cccnc3n2)cc1NS(=O)(=O)c1ccc(Br)cc1 | 721 |
| O=C(Cc1cccs1)N1CCC2(CC1)OCCN2S(=O)(=O)c1ccccc1 | 783 |
| CCC(=O)N1CCc2cc(N3CC(C(=O)NCc4ccc(F)cc4F)CC3=O)ccc21 (stereo not drawn) | 755 |
| O=c1ccn(-c2ccc(F)c(F)c2)nc1-c1nc(-c2ccc(F)cc2)no1 | 904 |
| Cc1cccc(-c2noc(C3CCCN3S(=O)(=O)c3c(C)c(C)cc(C)c3C)n2)c1 (stereo not drawn) | 849 |
| CN1c2cc(C(=O)Nc3ccc(OC(F)(F)F)cc3)ccc2C(=O)N2CCCCC21 (stereo not drawn) | 1010 |
| COc1ccc(NC2CC(=O)N(c3ccccc3Cl)C2=O)cc1 (stereo not drawn) | 627 |
| Cc1ccc(C2(C)NC(=O)NC2=O)cc1 (stereo not drawn) | 604 |
| COc1ccccc1C(=O)N1C[C@H](c2nc(-c3ccncc3)no2)[C@@H](C)C1 | 737 |
| CC(C)CC(=O)N1CCN(c2ccc(=O)n(-c3ccc(Cl)cc3)n2)CC1 | 809 |
| CC(=O)Nc1ccc(C2(C(=O)NCc3ccc(F)cc3)CCC2)cc1 | 748 |
| CCCN1CCN(c2ccc(NC(=O)C3CCC3)c(C(=O)O)c2)CC1 | 561 |
| CCOc1ccc(NC(=O)N2CCN(c3ccc(=O)n(-c4ccc(C)cc4)n3)CC2)cc1 | 802 |
